# Data reported in the supplement of paper PMC10307832.
# Columns and labels:
# Assay in all cases: relative viability (nuclei count vs DMSO), 5 days (fraction); higher = more cells survive
# [1] = compound: CC(C)C[C@@H](C(=O)N[C@H](C(=O)OC1CCCC1)c1ccccc1)[C@H](O)C(=O)NO [Tosedostat] + CS(=O)(=O)CCNCc1ccc(-c2ccc3ncnc(Nc4ccc(OCc5cccc(F)c5)c(Cl)c4)c3c2)o1 [Lapatinib] (partner 2 µM)
# Procedure, shortened: (§1)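 For relative viability, nuclei counts in treated wells were divided by those in vehicle wells. Lung cancer cell lines had been pin-tool dosed in 1536-well plates the day after seeding and cultured for 5 days, then fixed and stained in one step (final 0.05% Triton X-100, 1% formaldehyde, 1 ug/ml Hoechst) and imaged at 4×. Doses were one drug alone or a fixed anchor-drug dose plus five library-drug doses (not always all listed) in √10 steps, and values are duplicate-plate medians.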
# [2] = compound: CC1=NN=C(O1)C2=NN=C(C=C2)N3CCC(CC3)OC4=C(C=CC(=C4)F)Cl + Cc1nc(NC(=O)N2CCC[C@H]2C(N)=O)sc1-c1ccnc(C(C)(C)C(F)(F)F)c1 [Alpelisib] (partner 2 µM)
# Procedure, shortened: as §1
# [3] = compound: CC(C)C[C@@H](C(=O)N[C@H](C(=O)OC1CCCC1)c1ccccc1)[C@H](O)C(=O)NO [Tosedostat] + CS(=O)(=O)N1CCN(Cc2cc3nc(-c4cccc5[nH]ncc45)nc(N4CCOCC4)c3s2)CC1 [Pictilisib] (partner 1 µM)
# Procedure, shortened: as §1
# [4] = compound: CC1=NN=C(O1)C2=NN=C(C=C2)N3CCC(CC3)OC4=C(C=CC(=C4)F)Cl + CS(=O)(=O)CCNCc1ccc(-c2ccc3ncnc(Nc4ccc(OCc5cccc(F)c5)c(Cl)c4)c3c2)o1 [Lapatinib] (partner 2 µM)
# Procedure, shortened: as §1
Cell Line,relative viability ([1]; first compound 0.02 µM),relative viability ([1]; first compound 0.06325 µM),relative viability ([1]; first compound 0.2 µM),relative viability ([1]; first compound 0.6325 µM),relative viability ([1]; first compound 2 µM),relative viability ([2]; first compound 0.253 µM),relative viability ([2]; first compound 0.8 µM),relative viability ([2]; first compound 2.53 µM),relative viability ([2]; first compound 8 µM),relative viability ([3]; first compound 0.02 µM),relative viability ([3]; first compound 0.06325 µM),relative viability ([3]; first compound 0.2 µM),relative viability ([3]; first compound 0.6325 µM),relative viability ([3]; first compound 2 µM),relative viability ([4]; first compound 0.253 µM),relative viability ([4]; first compound 0.8 µM),relative viability ([4]; first compound 2.53 µM),relative viability ([4]; first compound 8 µM)
HCC-44,1.04,0.994,0.94,0.937,0.678,0.491,0.573,0.56,0.474,0.666,0.689,0.527,0.695,0.378,0.324,0.439,0.383,0.43
HCC-827,0.185,0.196,0.203,0.189,0.159,0.492,0.358,0.492,0.476,1.02,0.991,1.3,0.885,1.09,0.201,0.197,0.176,0.2
NCI-H441,–,–,–,–,–,0.826,0.674,0.542,0.532,0.549,0.443,0.461,0.379,0.328,–,–,–,–
NCI-H1734,1.23,1.11,0.997,1.01,0.763,0.655,0.635,0.672,0.556,0.471,0.468,0.444,0.459,0.433,0.954,0.683,0.908,0.882
HARA,0.756,0.797,0.611,0.775,0.574,0.54,0.479,0.516,0.481,0.375,0.432,0.314,0.376,0.348,0.397,0.363,0.403,0.285
NCI-H1703,1.35,1,1.02,0.743,0.943,0.313,0.388,0.337,0.395,0.229,0.253,0.268,0.222,0.245,1.06,0.795,0.904,0.76
NCI-H1395,1.1,0.944,0.877,0.862,0.674,0.962,0.897,0.995,1,0.627,0.799,0.601,0.606,0.567,0.849,0.782,1.02,0.873
NCI-H1355,1.02,1.03,0.88,0.913,0.915,–,–,0.78,0.734,0.449,0.441,0.352,0.329,0.354,–,–,0.869,0.78
LXF-289,0.967,0.883,0.935,0.868,0.92,0.783,0.789,0.744,0.67,0.818,0.766,0.752,0.784,0.676,0.643,0.672,0.696,0.584
